The supplement of paper PMC4862054

Tests used:
Details in all cases: incubation time: 72 h
[1] = system: MCF-10A; assay: normalised response (% of control), CellTiter-Glo; higher = more viable cells (100 = DMSO, 0 = benzethonium chloride kill control)
Method: (§1)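 DSRT, 72 h incubation, CellTox Green / CellTiter-Glo readout. Signal is normalised to DMSO and benzethonium chloride controls. Value is the normalised response at dose 3.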

[2] = system: HCC1599; assay: as above
Method: as §1

[3] = system: MFM-223; assay: as above
Method: as §1

[4] = system: SK-BR-3; assay: as above
Method: as §1

[5] = system: CAL-51; assay: as above
Method: as §1

[6] = system: MDA-MB-468; assay: as above
Method: as §1

[7] = system: BT-549; assay: as above
Method: as §1

[8] = system: BT-474; assay: as above
Method: as §1

[9] = system: MDA-MB-231; assay: as above
Method: as §1

[10] = system: HCC1937; assay: as above
Method: as §1

[11] = system: Hs578T; assay: as above
Method: as §1

[12] = system: DU-4475; assay: as above
Method: as §1

[13] = system: CAL-148; assay: as above
Method: as §1

[14] = system: HDQ-P1; assay: as above
Method: as §1

[15] = system: MDA-MB-436; assay: as above
Method: as §1

[16] = system: HCC1143; assay: as above
Method: as §1

[17] = system: MDA-MB-453; assay: as above
Method: as §1

[18] = system: CAL-85-1; assay: as above
Method: as §1

[19] = system: CAL-120; assay: as above
Method: as §1

[20] = system: MCF-10A; assay: normalised response (% of control), CellTox Green; higher = less cell death (100 = DMSO, 0 = benzethonium chloride kill control)
How it was run: (§2)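 A 20 µl suspension of breast cancer cells was seeded into each well of 384-well plates containing compound at 5 concentrations in 10-fold steps over a compound-specific 10,000-fold range. After 72 h incubation, CellTox Green fluorescence (485/520 nm) was read first, and CellTiter-Glo luminescence was read after 10 min at room temperature. Each plate was normalised against 0.1 % DMSO (100) and a positive kill control (0), and each value is the normalised signal at one concentration.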

[21] = system: HCC1599; assay: as above
How it was run: as §2

[22] = system: MFM-223; assay: as above
How it was run: as §2

[23] = system: CAL-51; assay: as above
How it was run: as §2

[24] = system: MDA-MB-468; assay: as above
How it was run: as §2

[25] = system: BT-549; assay: as above
How it was run: as §2

[26] = system: BT-474; assay: as above
How it was run: as §2

[27] = system: MDA-MB-231; assay: as above
How it was run: as §2

[28] = system: Hs578T; assay: as above
How it was run: as §2

[29] = system: DU-4475; assay: as above
How it was run: as §2

[30] = system: CAL-148; assay: as above
How it was run: as §2

[31] = system: HDQ-P1; assay: as above
How it was run: as §2

[32] = system: MDA-MB-436; assay: as above
How it was run: as §2

[33] = system: HCC1143; assay: as above
How it was run: as §2

[34] = system: MDA-MB-453; assay: as above
How it was run: as §2

[35] = system: CAL-85-1; assay: as above
How it was run: as §2

[36] = system: CAL-120; assay: as above
How it was run: as §2

[37] = system: HCC1937; assay: as above
How it was run: as §2

Row | Compound | normalised response [1] | normalised response [2] | normalised response [3] | normalised response [4] | normalised response [5] | normalised response [6] | normalised response [7] | normalised response [8] | normalised response [9] | normalised response [10] | normalised response [11] | normalised response [12] | normalised response [13] | normalised response [14] | normalised response [15] | normalised response [16] | normalised response [17] | normalised response [18] | normalised response [19] | normalised response [20] | normalised response [21] | normalised response [22] | normalised response [23] | normalised response [24] | normalised response [25] | normalised response [26] | normalised response [27] | normalised response [28] | normalised response [29] | normalised response [30] | normalised response [31] | normalised response [32] | normalised response [33] | normalised response [34] | normalised response [35] | normalised response [36] | normalised response [37]
1 | C=CCn1c(=O)c2cnc(Nc3ccc(N4CCN(C)CC4)cc3)nc2n1-c1cccc(C(C)(C)O)n1 [MK1775] (100 nM) | 73.3% | 81.2% | 82.4% | 79% | 94.7% | 89.2% | 91.1% | 87.1% | 81.5% | 90.7% | 87.7% | 93.4% | 73.4% | 74.6% | 69.4% | 89.2% | 67.6% | 90.3% | 79% | 84.2% | 90% | 97.1% | 82.8% | 76.1% | 105% | 95.4% | 70.8% | 66.1% | 94.9% | 73.4% | 98.5% | 63.2% | 98.6% | 96.5% | 77.2% | 97.8% | 
2 | CO[C@@H]1[C@H](N(C)C(=O)c2ccccc2)C[C@H]2O[C@]1(C)n1c3ccccc3c3c4c(c5c6ccccc6n2c5c31)C(=O)NC4 [Midostaurin] (100 nM) | 68.7% | 99.6% | 98.8% | 98.4% | 89.7% | 92.4% | 93.4% | 85.3% | 85.8% | 85.5% | 83.3% | 96.9% | 114% | 95.9% | 102% | 95.3% | 94.3% | 99% | 88.5% | 108% | 94.5% | 103% | 74.1% | 137% | 88.8% | 96.4% | 91.2% | 67% | 94.6% | 97.8% | 103% | 93.9% | 88.6% | 102% | 95.8% | 74.9% | 
3 | CCNC(=O)c1noc(-c2cc(C(C)C)c(O)cc2O)c1-c1ccc(CN2CCOCC2)cc1 [NVP-AUY922] (10 nM) | 95% | 111% | 70.4% | 55.8% | 99.3% | 32.4% | 73.2% | 116% | 110% | 95.7% | 104% | 101% | 114% | 77.1% | 56.4% | 107% | 101% | 107% | 103% | 65% | 112% | 106% | 118% | 107% | 81.9% | 95.4% |  | 105% | 98.7% | 107% | 104% | 70.9% | 119% | 101% | 73.1% | 93% | 
4 | O=[N+]([O-])c1ccc2c(c1)S(=O)(=O)C=C2 [Stattic] (500 nM) | 106% | 103% | 96.8% | 106% | 99% | 45.6% | 85.3% | 94.5% | 90.8% | 94.3% | 96.5% | 102% | 98.3% | 100% | 100% | 104% | 85.2% | 99.5% | 98.2% | 106% | 95.4% | 96.9% | 108% | 133% | 102% | 101% | 107% | 89.2% | 107% | 102% | 104% | 95.3% | 81.2% | 103% | 98.8% | 99.8% | 
5 | O=C(CCCCCCC(=O)Nc1ccccc1)NO [Vorinostat] (100 nM) | 101% | 113% | 97.8% | 94.5% | 69.6% | 110% | 100% | 96.2% | 93.6% | 97.7% | 98.2% | 99.6% | 108% | 97.1% | 97% | 98.8% | 101% | 105% | 96.1% | 91.4% | 95.5% | 99.6% | 86.3% |  | 96.8% | 71.5% | 92.3% | 108% | 97.7% | 102% | 102% | 74.1% | 109% | 102% | 94.8% | 90.8% | 102%
